Assay results published in US4921984A, “Novel platinum complexes” (Nippon Kayaku Kabushiki Kaisha, priority 1985, dated 1990).

Assays:
[1] = system: cis-Platin resistant mouse leukemia L1210 cells; test: Growth inhibition test on cis-Platin resistant L1210 tumor cells; format: cell-based; details: ratio of IC50 on cis-Platin resistant to non-resistant L1210 cells
Text: (§1) 1×10^5 mouse leukemia L1210 cells or 1×10^5 mouse leukemia P388 cells were inoculated into the abdominal cavities of CDF1 female mouse. […] After 5 days, their tumor cells were inoculated to the abdominal cavities of other CDF1 female mouse, and the same treatment was applied.

[2] = system: mouse fibrosarcoma M5076 cells; test: Antitumor activity test in vivo, fibrosarcoma M5076; details: M5076 inoculated s.c., i.p. administration
Protocol: (§2) 1×10^6 mouse leukemia P388 cells were inoculated into the abdominal cavities of 6-week-old female CDF1 mice, and from the next day a compound No. 15 was administered to them intraperitoneally once a day for 5 consecutive days. Separately, 1×10^6 mouse lung cancer Lewis lung carcinoma (LL) cells were inoculated into the abdominal cavities of male BDFl mice, and from the next day a compound No. 15 was administered to them intraperitoneally once a day for 5 consecutive days. Separately, 1×10^6 mouse fibrosarcoma M5076 cells were inoculated into the body sides of female C57BL/6 mice subcutaneously, and from the next day a compound No. 15 was administered to them intraperitoneally. Separately, 1×10^6 mouse colon cancer (colon 26) cells were inoculated into the abdominal cavities of female CDF1 mice, and from the next day a compound No. 15 was administered to them intraperitoneally. To respective control groups (compound-non-treated groups), physiological saline solution was administered.
(§3) From the survival times of the compound-treated group and the control group, respective median values (median survival times) were calculated. Using these values, T/C percentage was calculated from the following equation. [formula]

[3] = system: mouse lung cancer Lewis lung carcinoma (LL) cells; test: Antitumor activity test in vivo, Lewis lung carcinoma (LL); details: i.p. once a day for 5 days; for Max (T/C): median survival time
Protocol: as §2, §3

[4] = system: mouse colon cancer (colon 26) cells; test: Antitumor activity test in vivo, colon 26
Protocol: as §2, §3

[5] = water
[6] = system: mouse leukemia L1210 cells; test: Growth inhibition test on cultured mouse leukemia L1210 cells; format: cell-based; details: RPMI 1640 with 10% fetal calf serum
Protocol: Mouse leukemia L1210 cells were cultured in a RPMI 1640 medium containing 10% of fetal calf serum.

[7] = system: mouse leukemia L1210; test: Antitumor activity test on mouse leukemia L1210 in vivo; details: for max (T/C): L1210, average survival time treated/control ×100, i.p. once a day for 5 days; for Opt. dose: L1210, dose giving max (T/C); for Opt. dose / LD50: i.p. once a day for 5 days; for LD50: L1210-bearing CDF1 mice
Protocol: Mice of compound-non-treated group (control group) were administered with physiological saline solution in the same manner. The average survival times of the compound-treated group and the control group (abbreviated as T and C, respectively) were measured and T/C percentage (T/C×100) was calculated from the following equation. [formula]
In Table 4, max (T/C) means the maximum value of T/C and optimum dose (opt. dose) means an administration amount giving the max namely, an optimum administration amount.

[8] = system: cis-Platin resistant mouse leukemia P388 cells; test: Growth inhibition test on cis-Platin resistant P388 tumor cells; format: cell-based; details: ratio of IC50 on cis-Platin resistant to non-resistant P388 cells
Text: as §1

[9] = system: mouse leukemia P388 cells; test: Antitumor activity test in vivo, mouse leukemia P388; details: for Opt. dose: P388, i.p. once a day for 5 days; for Max (T/C): P388, median survival time, i.p. once a day for 5 days
Protocol: as §2, §3

[10] = system: various tumor cells; test: Antitumor activity on various tumors (general statement); format: in vivo, mouse; details: in words
Protocol: as §2, §3

[11] = Test for renal toxicity; details: mouse, in vivo
Protocol: A compound was administered one time to 6-week-old male CDFl mice intraperitoneally. After 4 days, their blood was collected for measurement of blood urea nitrogen concentration (BUN value).
In Table 6, body weight ratio is a ratio of body weight after 4 days from administration to body weight of administration day.

[12] = rate, in words; prior art; cited from earlier work

## CC1CC[NH2+][Pt-2]2([NH2+]C1)[O]C(=O)C1(CCC1)C(=O)[O]2 (racemic) [Compound No. 15, cis-Cyclobutane-1,1-dicarboxylato-2-methyl-1,4-butanediamine platinum]
[1]
  IC50 R/IC50, Tumor cell L1210: 3.19
[2]
  Opt. dose: 16 mg/kg
[2]; median survival time
  Max (T/C): 152%
[3]
  Opt. dose: 32 mg/kg
  Max (T/C): 222%
[4]; Colon 26, i.p. administration
  Opt. dose: 32 mg/kg
[4]; Colon 26, median survival time, i.p. administration
  Max (T/C): 198%
[5]
  Solubility in water: > 8 mg/mL
[6]
  IC50: 1.20 µg/mL
[7]
  max (T/C): 182%
  Opt. dose: 32 mg/kg
  LD50: 80.0 mg/kg
[8]
  IC50 R/IC50, Tumor cell P388: 3.26
[9]
  Opt. dose: 32 mg/kg
  Max (T/C): 260%

## C[C@@H](CN)CCN.O=C([O-])C1(C(=O)[O-])CCC1.[Pt+2] (stereo in doubt) [15R, cis-cyclobutane-1,1-dicarboxylato-R-2-methyl-1,4-butanediamine platinum]
[3]
  Opt. dose: 30 mg/kg
  Max (T/C): 166%
[5]
  Solubility in water: > 15 mg/mL
[6]
  IC50: 0.78 µg/mL
[7]
  max (T/C): 189%
  Opt. dose: 32 mg/kg
  LD50: 33.6 mg/kg
[9]
  Opt. dose: 20 mg/kg
  Max (T/C): 253%
[10]
  antitumor effect: excellent antitumor activities on various tumor cells
[11]
  renal toxicity: very low renal toxicity

## C[C@H]1CC[NH2+][Pt-2]2([NH2+]C1)[O]C(=O)C1(CCC1)C(=O)[O]2 [15S, cis-cyclobutane-1,1-dicarboxylato-S-2-methyl-1,4-butanediamine platinum]
[3]
  Opt. dose: 50 mg/kg
  Max (T/C): 164%
[5]
  Solubility in water: > 15 mg/mL
[6]
  IC50: 1.08 µg/mL
[7]
  max (T/C): 206%
  Opt. dose: 32 mg/kg
  LD50: 48.0 mg/kg
[9]
  Opt. dose: 40 mg/kg
  Max (T/C): 253%
[10]
  antitumor effect: excellent antitumor activities on various tumor cells
[11]
  renal toxicity: very low renal toxicity

## N.N.[Cl][Pt][Cl] [cis-Platin, cis-dichlorodiammineplatinum, reference compound]
[12]
  dissolution in water: dissolving in water slowly
[7]
  Opt. dose: 4 mg/kg
